pIC50: −log10 of the molar value. “And” between values parts separate entries of the source, which are not always exact repeats. Identical values can stand only once. Like-named read-outs stand apart in the source and are kept apart here.

Data set [1] relates to B cells from normal donors. The data set can be described thus: Cellular toxicity to B cells from normal donors. The data set is classed as cell-based, human. From the text:
(§1) To predict the therapeutic window of the PatA analogs, their cellular toxicity was compared to CLL cells and to B and T cells from normal donors (FIGS. 8A and 8B). […] PatA was originally identified as a biological probe that inhibits T cell activation, consistent with its toxicity to T cells.

Data set [2] relates to P388 murine leukemia cells. Particulars: read-out: IC50, cytotoxic activity; cited from earlier work.
The test system of data set [3] is T cells from normal donors. Put plainly: Cellular toxicity to T cells from normal donors. Type of data set: cell-based, human.
Description: as §1

Another data set concerns primary CLL cells. Put plainly: Toxicity/apoptosis in primary CLL cells, annexin V/PI double staining and flow cytometry. The data set is classed as cell-based, human. Particulars: for IC50: primary CLL cells, 24 incubation; for influence of human plasma content on potency: RPMI with 10% fetal bovine serum, 10% or 50% patient plasma. The procedure:
(§2) The mechanism of action of DMDAPatA was studied in multiple primary CLL samples (FIG. 3A). […] CLL cells were incubated with DMDAPatA for 4 and 24 h then pulse labeled with [^3H]leucine for 1 h. The amount of [^3H]leucine incorporation into the acid insoluble materials (DNA, RNA and proteins) was measured by scintillation counter. […] This is consistent in 3 samples as quantitated in FIG. 3C. The Bcl-2 level was not affected by DMDAPatA, which is consistent with its longer half-life (FIG. 3C). […] MOMP facilitates the release of cytochrome c from mitochondria to form the apoptosome, which activated caspase-3 and induced apoptosis. As PARP is a substrate of caspase-3, an increase of cleaved PARP in FIG. 3C indicated activation of caspase 3. Apoptosis was measured by annexin V and propodium iodide (PI) double staining followed by flow cytometry.
(§3) To screen for PatA analogs with greater potency and less plasma protein binding, the toxicity of the analogs to primary CLL cells was measured after 24 of incubation by annexin/PI double staining followed by flow cytometry. This was compared between CLL cells cultured in media supplemented with either 10% FBS or patient plasma to evaluate the plasma influence. Plasma protein binding was assessed using the equilibrium dialysis method (FIG. 7B).
For orientation: A flow cytometer gives signals particle by particle.

For the next data set, the system named is Mcl-1. Put plainly: Immunoblot of Mcl-1 level in CLL cells. Type of data set: cell-based, human. Particulars: CLL samples. On the procedure: as §2
(§4) To confirm that the analogs retain the inhibition on protein synthesis, leucine incorporation analysis was performed on the analogs (FIG. 9A) and compared to DMDAPatA and PatA.

The nature of data set [4]: Plasma protein binding, equilibrium dialysis. The data set is classed as in vitro ADME, human. The procedure: as §3
In this example, the plasma protein binding assay used to provide the plasma protein binding data is described.
The assay includes the following steps.
1. Frozen plasma was thawed and centrifuged at 1120 g for 10 min to remove any particulates. The plasma was decanted, the pH was measured and, if required, was adjusted to pH7.4 with lactic acid.
2. All compounds were prepared at 10 mM concentration in DMSO. The solutions were carefully vortexed to ensure the compounds dissolved. The 10 mM DMSO solutions were diluted to 500 μM MeOH solutions (5+95 μl).
3. In a 2 mL 96-well plate (DWP), 1000 μL of plasma was pipetted into each well in Columns 1-4.
4. 10 μL of the 500 μM compound solution was pipetted to 1000 μL of corresponding plasma. (The final DMSO=0.05%). The solution was capped and carefully vortexed for 5 min.
5. 200 μL of PBS buffer was added to each receiver well of the dialysis plate (buffer was added to the Receiver first).
6. The bottom of dialysis plate was capped and turned over to the orange donor side (top) of dialysis plate.
7. The orange donor side of the dialysis plate was uncapped and 200 μL of the 10 μM drug/plasma samples were transferred from the 2 ml 96-DWP to the corresponding donor wells in the dialysis plate. The orange donor side of the dialysis plate was then capped.
8. The dialysis plate was placed onto the plate rotator in a 37° C. oven and incubated at 37° C. with a rotation speed 20 rpm for 22 hr.
9. To a 1 mL 96-DWP, 50 μL/well of the 5 μM drug/plasma samples was pipetted from the 2 mL 96-DWP in triplicate. 50 μL/well of PBS and then 300 μL of ACN/IS was added. The plate was kept at 4° C. This plate serves as the recovery plate.
10. Two 1 mL 96-DWP were prepared and marked as Donor Plate and Receiver Plate.
11. The dialysis plate was removed from the 37° C. oven.
12. The caps were removed from the donor side of the dialysis plate.
13. 50 μL of samples were pipetted from the donor side of the dialysis plate and added into the 96-DWP Donor Plate. 50 μL of PBS buffer was added into the 96-DWP Donor Plate.
14. The donor side of the dialysis plate was capped and turned over. Caps were removed from the Receiver side wells. 50 uL of samples were pipetted from the Receiver side of the dialysis plate and added to the 96-DWP Receiver Plate. […]
23. The samples in the Receiver Plate, Donor Plate, and Recovery Plate were analyzed by LC/MS/MS […]
On the technique in general: Equilibrium dialysis compares concentrations on both sides of a semipermeable membrane.

Data set [5] has as its system models of human leukemia and melanoma. Particulars: mice; cited from earlier work.
In data set [6] the test system is protein synthesis in CLL cells. The data set can be described thus: [3H]leucine incorporation analysis of protein synthesis in CLL cells. The data set is classed as cell-based, human. Particulars: CLL cells incubated 4 and 24 h, pulse labeled 1 h. The procedure: as §2, §4
The nature of data set [7]: Stability of DMDAPatA in RPMI, FBS and human plasma. The data set is classed as in vitro ADME. Particulars: read-out: Half-life time (converted). On the procedure: These experiments were performed in CLL cells cultured in media supplemented with 10% patient plasma. While mimicking the in vivo environment, we also found this condition beneficial in maintaining cell survival. One potential reason for the reduced potency in the presence of human plasma is stability. To test this theory, the stability of DMDAPatA was studied in FBS and human plasma at two different concentrations.

The next data set concerns Bcl-2. Put plainly: Immunoblot of Bcl-2 level in CLL cells. Particulars: CLL samples. Type of data set: cell-based, human. On the procedure: as §2
(In general: A western blot detects proteins with antibodies after separation by electrophoresis.)

[8] abbreviates: Homo sapiens, CLL cell, media with 10% FBS, read-out: IC50 (μM) 10% FBS.
Setting [9] is: Homo sapiens, CLL cell, media with 10% patient plasma, read-out: IC50 (μM) 10% Plasma.
[10] abbreviates: media with 10% FBS, read-out: IC50 (μM) 10% FBS.
The mark [11] stands for this setting: media with 10% patient plasma, read-out: IC50 (μM) 10% Plasma.
[12] abbreviates: RPMI medium without serum, Pure RPMI.

Broadly, the pIC50 is the negative decadic logarithm of the IC50, by convention in mol/L. A word on the IC50: it is the concentration that gives 50% inhibition. For `CC(/C=C/C(C)=C/[C@@H]1Cc2nc(cs2)[C@@H](C)C[C@@H](N)CC(=O)O[C@@H](C)C/C(C)=C/C=C\C(=O)O1)=C\CN(C)C` [PatA, Pateamine A], in data set [1], the “toxicity to normal B cells compared with CLL cells” value is “similarly toxic to CLL cells as well as normal B and T cells”. Also, in data set [2], the pIC50 was 9.57. The “toxicity to normal T cells compared with CLL cells” value in data set [3] is “similarly toxic to CLL cells as well as normal B and T cells”. The 50% inhibitory concentration (IC50) with primary CLL cells (setting [8]) and in the data set with primary CLL cells (setting [9]) was 0.2 µM each time. Further, the “influence of human plasma content on potency” value in the data set with primary CLL cells is “not as influential”.
Take “1,1,1-Trichloro-2-methylpropan-2-yl ((12Z,3S,6Z,8E,11S,15R)-3-((1E,3E,5E)-7-(dimethyl amino)-2-methylhepta-1,3,5-trien-1-yl)-9,11-dimethyl-5,13-dioxo-4,12-dioxa-1(2,4)-thiazolacycloheptadecaphane-6,8-dien-15-yl)carbamate [OR-IV-211]”: the IC50 was determined as 3.5 µM with primary CLL cells (setting [10]) and 6.65 µM with primary CLL cells (setting [11]).
On to `CC(=O)NC1CCc2csc(n2)CC(C=C(C)C=CC(C)=CCN(C)C)OC(=O)C=CC=C(C)CC(C)OC(=O)C1` [MZ732, N-((12Z,3S,6Z,8E,11S,15R)-3-((1E,3E,5E)-7-(dimethylamino)-2,5-dimethylhepta-1,3,5-trien-1-yl)-9,11-dimethyl-5,13-dioxo-4,12-dioxa-1(2,4)-thiazolacycloheptadecaphane-6,8-dien-15-yl)acetamide], for which the 50% inhibitory concentration (IC50) was found to be 4.58 µM with primary CLL cells (setting [10]) and 6.8 µM with primary CLL cells (setting [11]).
In general, half-life refers to the time in which the quantity being followed falls by half. On to `CC(/C=C/C(C)=C/[C@@H]1Cc2nc(cs2)CCCCC(=O)O[C@@H](C)C/C(C)=C/C=C\C(=O)O1)=C\CN(C)C` [DMDAPatA, Des-methyl, des-amino Pateamine A], for which the Mcl-1 level entry in the data set with Mcl-1 is “reduced the short-lived anti-apoptotic protein Mcl-1”. Moreover, the recovery in plasma entry in data set [4] is “low recovery”. In addition, the plasma protein bound in data set [4] (human plasma) is 99.7% and > 99%. For the same molecule, the “activity in xenograft models” value in [5] is given as “significant tumor reduction”. In addition, the “inhibition of protein synthesis ([3H]leucine incorporation)” value in data set [6] is recorded as “inhibit protein synthesis”. For the same molecule, the half-life at 1 µM in data set [7] (Fetal Bovine Serum) is 16 h; in data set [7] (Human Plasma), 18 h; in data set [7] (setting [12]), 3 h. Moreover, the half-life at 10 µM in data set [7] (Fetal Bovine Serum) was 11.5 h; in [7] (Human Plasma), 14 h; in data set [7] (setting [12]), 3.2 h. The Bcl-2 level result in the data set on Bcl-2 is reported as “not affected”. In addition, the “potency relative to PatA (times less potent)” value in the data set on primary CLL cells (CLL cells, media with 10% patient plasma) is on record as “about 30 times”. In addition, in the data set on primary CLL cells (CLL patient samples by prognostic group), the “IC50 in samples with favorable versus poor prognostic characteristics” value is “no significant differences”. Besides, the pIC50 with primary CLL cells (Homo sapiens, CLL cell, measured in 13 CLL samples, read-out: average IC50) is 5.55. In addition, the IC50 in the data set with primary CLL cells (setting [8]) came out at 0.65 µM; with primary CLL cells (setting [9]), 6.42 µM. In addition, the “influence of human plasma content on potency” value with primary CLL cells is recorded as “greatly reduced the potency”.
`CC(/C=C/C(C)=C/[C@@H]1Cc2nc(cs2)CC[C@@H](N)CC(=O)O[C@@H](C)C/C(C)=C/C=C\C(=O)O1)=C\CN(C)C` [OR-IV-234, (12Z,3S,6Z,8E,11S,15R)-15-amino-3-((1E,3E,5E)-7-(dimethylamino)-2,5-dimethylhepta-1,3,5-trien-1-yl)-9,11-dimethyl-4,12-dioxa-1(2,4)-thiazolacycloheptadecaphane-6,8-diene-5,13-dione]: the “plasma protein binding (PPB) compared with PatA and DMDAPatA” value in data set [4] is reported as “much lower plasma protein binding”. The recovery in plasma result in data set [4] is reported as “modest recovery”. For the same molecule, the results for the IC50 in the data set with primary CLL cells (setting [10]) and in the data set on primary CLL cells (setting [11]) were 0.33 µM and 0.35 µM, respectively.
